# Laboratory results: PMC8743659, “C1632 suppresses the migration and proliferation of non‐small‐cell lung cancer cells involving LIN28 and FGFR1 pathway” (Journal of Cellular and Molecular Medicine, 2021)
# Entries after “also recorded” stand apart in the source; their conditions may differ.
# What was measured:
# Format in all cases: cell-based, human
# [1] = tested on: focal adhesion kinase (FAK); experiment: Immunofluorescence assay of FAK; settings: A549R cells, 5 days, concentration-dependent
# Procedure: Performing the immunofluorescence (IF) assay as previously described.[39] Briefly, cells were seeded to slide, fixed with 4% paraformaldehyde, and permeabilized using 0.5% Triton X‐100. Next, cells were incubated with primary antibodies against FAK (CST), followed by incubating with secondary antibodies (DyLight 488‐conjugated anti‐mouse). DAPI was used to stain the nuclear. The fluorescence image was captured by using Nikon Ti microscope and the quantitative analysis was carried out by ImageJ.
# A549 cells [2] = experiment: SA-β gal staining assay; settings: A549, 15, 30 and 60 mg/L, 5 days
# Procedure: (§1) The assay was set up following the β‐galactosidase (SA‐β gal) staining Kit, which was obtained from Sigma. In brief, cells were washed once with PBS and fixed with stationary liquid provided in the kit at room temperature for 15 min. Next, the cells were incubated overnight at 37°C in dark with the 1 ml working solution containing 0.05 mg/ml 5‐bromo‐4‐chloro‐3‐indolyl‐b‐d‐galactopyranoside (X‐gal) and observed under a normal light microscope (Nikon).
# A549R cells [3] = experiment: SA-β gal staining assay; settings: A549R, 15, 30 and 60 mg/L, 5 days
# Procedure: as §1
# MRC5 cells = experiment: MTT cell viability assay; settings: MRC5, high dose 60 mg/L
# Procedure: (§2) The cell viability of MRC5, A549, and A549R were assessed by the 3‐(4,5‐dimethylthiazol‐2‐yl)‐2,5‐diphenyltetrazolium bromide (MTT) assay.[39] Cells were treated with indicated concentration of C1632 or 0.01% DMSO (Control) for 48 h before 20 μl/well MTT (0.5 mg/ml) was added for another 4 h. The reaction product formazan was dissolved in 100 μl DMSO and the absorbance at 560 nm was determined by the spectrophotometer (DTX880, Beckman Coulter).
# A549 cells [4] = experiment: MTT cell viability assay; settings: A549, high dose 60 mg/L
# Procedure: as §2
# A549R cells [5] = experiment: MTT cell viability assay; settings: high dose 60 mg/L
# Procedure: as §2
# FGFR1 = experiment: Western blot of FGFR1 signalling in NSCLC cells; settings: A549 and A549R cells, C1632 5 days, dose-dependent
# Procedure: The total cell protein was extracted and denaturized at 95°C for 10 min. Samples were separated in SDS‐PAGE gel, then transferred to a PVDF membrane. […] Blots were probed with relevant primary antibodies against FGFR1 (CST), p‐FGFR1 (CST), MAPK (CST), p‐MAPK (CST), FAK (CST), p‐FAK (CST), MMP‐9 (CST), LIN28B (CST), GAPDH (CST), and β‐actin (proteintech) overnight at 4°C, respectively. Then the lanes were detected with HRP‐conjugated secondary antibodies and visualized using WESTAR SUPERNOVA kit ([…]).
# A549 cells [6] = experiment: Cell cycle distribution analysis (flow cytometry); settings: A549, 15, 30 and 60 mg/L, 5 days, dose-dependent
# Procedure: (§3) Cells were cultured in the absence or presence of 15, 30, and 60 mg/L of C1632 or 0.01% DMSO for 5 days, trypsinized, washed, and stained with propidium iodide before cell cycle distribution was assessed on a flow cytometer (BD FACSCalibur, BD Biosciences).
# A549R cells [7] = experiment: Cell cycle distribution analysis (flow cytometry); settings: A549R, 15, 30 and 60 mg/L, 5 days, dose-dependent
# Procedure: as §3
# A549 cells [8] = experiment: Annexin V/PI apoptosis assay; settings: A549, 15, 30 or 60 mg/L, 5 days
# Procedure: (§4) Cells were seeded in 6 cm^2 dish with a density of 3.0 × 10^5 cells per dish and treated with C1632 with final concentration of 15, 30, and 60 mg/L or 0.01% DMSO for 5 days. Then the assay was performed following the protocol provided by the Annexin V/PI Apoptosis Kit (Sigma) and was assessed on a flow cytometer (BD FACSCalibur, BD Biosciences).
# A549R cells [9] = experiment: Annexin V/PI apoptosis assay; settings: A549R, 15, 30 or 60 mg/L, 5 days
# Procedure: as §4
# A549 cells [10] = experiment: Cell adhesion assay; settings: A549, fibronectin-coated plate, concentration-dependent
# Procedure: (§5) The cell adhesion assay was performed as indicated previously.[38] Briefly, the 96‐well plate was coated with human fibronectin (Millipore), and then cells were seeded into the 96‐well plate and cultured for another 1 h at 37°C in a 5% CO2 incubator. Finally, rinsing the plate before fixed with 10% formalin and stained with crystal violet. As followed, wash the plate with ddH2O and add 100 μl acetic acid (33%) into the plate to dissolve the crystal violet. The absorbance at 560 nm was detected by Synergy H1 Multi‐Mode Reader (BioTek). Relative number of cells attaching to extracellular matrix was evaluated using the following equation: mean OD of treated cells/mean OD of control cells.
# A549R cells [11] = experiment: Cell adhesion assay; settings: fibronectin-coated plate, concentration-dependent
# Procedure: as §5
# [12] = tested on: focal adhesion kinase (FAK); experiment: Western blot of p-FAK; settings: A549 and A549R cells, 5 days
# Procedure: The total cell protein was extracted and denaturized at 95°C for 10 min. Samples were separated in SDS‐PAGE gel, then transferred to a PVDF membrane. Then this membrane was blocked with 5% non‐fat milk (solved in TBST) for 2.5 h at room temperature. Blots were probed with relevant primary antibodies against FGFR1 (CST), p‐FGFR1 (CST), MAPK (CST), p‐MAPK (CST), FAK (CST), p‐FAK (CST), MMP‐9 (CST), LIN28B (CST), GAPDH (CST), and β‐actin (proteintech) overnight at 4°C, respectively. Then the lanes were detected with HRP‐conjugated secondary antibodies and visualized using WESTAR SUPERNOVA kit (CYANAGEN).
# A549 cells [13] = experiment: Scratch-wound healing assay; settings: A549, 60 mg/L
# Procedure: (§6) The cells scratch‐wound assay was performed as previous reported.[38] The cells were seeded in a 6‐well plate and then cultured in DMEM medium containing indicated concentration of C1632 or 0.01% DMSO for 5 days. A denuded area was created across the diameter of dish by a yellow tip as the cell density up to 95%. Then cells were maintained in a serum‐free medium throughout the test. Phase‐contrast images were taken at the indicate time by Nikon Ti microscope and analysed with Axiovision Rel.4.8 software.
# A549R cells [14] = experiment: Scratch-wound healing assay; settings: 60 mg/L, after 72 h, control 97%
# Procedure: as §6
structure (smiles),measurement,setting,value
CC(=O)N(C)c1cccc(-c2ccc3nnc(C)n3n2)c1 [C1632],distribution and foci formation of FAK,[1],reduced
same,senescence (β-gal positive cells),A549 cells [2],did not induce the senescence; also recorded: did not significantly increase
same,senescence (β-gal positive cells),A549R cells [3],induce the senescence
same,cytotoxicity on normal foetal lung fibroblast cells,MRC5 cells,almost had no cytotoxicity
same,cell viability,A549 cells [4],decreased the viability
same,cell viability,A549R cells [5],decreased the viability
same,expression of FGFR1 and FGFR1 phosphorylation,FGFR1,inhibited
same,phosphorylation of the downstream kinase MAPK,FGFR1,inhibited
same,cell cycle distribution,A549 cells [6],arrested A549 and A549R cells at the G0/G1 phase
same,cell cycle distribution,A549R cells [7],arrested A549 and A549R cells at the G0/G1 phase
same,apoptosis,A549 cells [8],induces apoptosis
same,apoptosis,A549R cells [9],limited effects; also recorded: did not significantly increase
same,cell adhesion to the matrix,A549 cells [10],significant decrease
same,cell adhesion to the matrix,A549R cells [11],significant decrease
same,phosphorylation of FAK,[12],efficiently decreased
same,migration rate,A549 cells [13],significant decrease
same,scratch covered by migrated cells,A549R cells [14],60%
